Values quoted from earlier work as cited in the CATMoS acute toxicity set (Mansouri et al. 2021).
Where “and” joins values, the source holds several entries; their conditions need not be identical. Identical values can stand only once.

Experiment: rat acute oral toxicity
Conditions: in vivo
Description: […]The data set underlying the modeling effort for this project was initially compiled by NICEATM and U.S. EPA’s CCTE. Briefly, LD50 data were collected from rat acute oral systemic toxicity tests, including limit tests, ranges/confidence intervals, and discrete LD50 values. The full data set included 21,200 LD50 entries for 15,688 substances. […] Data were reviewed to ensure that LD50 values with obvious errors in the extracted data such as unit conversion errors (e.g., comma and decimal separator misplacements) were either fixed or removed. After this review, 16,209 LD50 values remained. Many of the chemicals represented had multiple LD50 entries, requiring that a single representative value per Chemical Abstracts Service Registry Number (CASRN) identifier be defined to facilitate modeling efforts. Based on ATWG feedback and to define the representative LD50 as a protective value while accounting for the distribution across multiple LD50s, the median of the lowest quartile was computed using only discrete LD50 values (omitting limit test data and range and confidence interval data). A detailed summary of the data compilation is available online on the NICEATM webpage dedicated to the collaborative modeling project (NTP 2020).
[…][…] For categorical designations, limit test and range/confidence interval LD50 data were integrated wherever possible. As such, the number of chemicals with end point values/calls varies across the modeling end points (Table 3) based on whether chemicals had representative LD50 values and/or other data. If a chemical had both, the representative value was used to determine categorical calls rather than limit test data. Some data were useable only for certain end points and categories depending on the thresholds. For example, ranges that spanned multiple hazard categories were considered only for the binary (very toxic/nontoxic) end points and omitted from rendering a determination for hazard category assignment.
[…]The final data set comprising 11,992 chemicals was split into training and evaluation sets […], respectively. This process was performed semirandomly by ordering chemicals based on the five end points (categorical and continuous LD50 values) and partitioning every fourth record into the evaluation set accordingly. This approach was taken to ensure an equivalent distribution of the LD50 values and the different hazard categories between the training and the evaluation sets without supervised sampling of the chemicals based on structures (Figure 1A). The sources of the chemical structures were also kept equivalent between the two sets, with chemical structures obtained from DSSTox, being the highest quality, representing over 75% of each set (Figure 1B).

| SMILES | LD50 |
| --- | --- |
| CC(C)=CC1C(C(=O)OCc2cccc(Oc3ccccc3)c2)C1(C)C (configuration not stated) | 500 mg/kg |
| ClCCOCOCCCl | 65 mg/kg |
| Cc1c(Cl)c(=O)oc2cc(OP(=O)(OCC(C)Cl)OCC(C)Cl)ccc12 (configuration not stated) | 686 mg/kg |
| FC(F)(F)c1nc2c(Cl)c(Br)c(Br)c(Cl)c2[nH]1 | 3.43 mg/kg |
| Cc1nccnc1C | 613 mg/kg |
| NC(=O)c1cc([N+](=O)[O-])cc([N+](=O)[O-])c1 | 1250 mg/kg |
| CCOP(=O)(OCC)SCCC(F)=C(F)F | 68 mg/kg |
| CCOC(=O)C=C(C)OP(=O)(OCC)OCC | 22 mg/kg |
| CCN(N=O)C(N)=O | 300 mg/kg |
| OC[C@@H](O)CN1CCN(c2ccccc2)CC1 | 887 mg/kg |
| COP(=O)(NC=O)SC (configuration not stated) | 190 mg/kg |
| CC(C)[C@@]1(O)[C@@H](OC(=O)c2ccc[nH]2)[C@@]2(O)[C@@]3(C)C[C@]4(O)O[C@@]5([C@H](O)[C@@H](C)CC[C@]35O)[C@@]2(O)[C@@]14C | 750 mg/kg |
| CCCOC(N)=O | 1880 mg/kg |
| COP(N)(=S)OC | 410 mg/kg |
| CC1(C)[C@H](C=C2CCCC2)[C@H]1C(=O)OCc1coc(Cc2ccccc2)c1 | 63 mg/kg |
| CC1(CCl)COC1 | 1120 mg/kg |
| CC(C(=O)OCCOCCO)c1ccc2c(c1)C(=O)Cc1ccccc1O2 (configuration not stated) | 260 mg/kg |
| O=c1ccc2ccc3occc3c2o1 | 322 mg/kg |
| C=C(CCC)C1C(C=C(C)C)C1(C)C (configuration not stated) | 2600 mg/kg |
| Clc1ccc(SCOC(Cn2ccnc2)c2ccc(Cl)cc2Cl)cc1 (configuration not stated) | 3850 mg/kg |
| COc1c2ccoc2cc2oc(CO[C@@H]3O[C@H](CO)[C@@H](O)[C@H](O)[C@H]3O)cc(=O)c12 | 1470 mg/kg |
| CC(C)NP(O)(=S)Oc1cc(Cl)c(Cl)cc1Cl (configuration not stated) | 31 mg/kg |

| SMILES | LD50 |
| --- | --- |
| COP(=O)(OC)OC(C)=CC(=O)OCc1ccc(Cl)cc1 | 139 mg/kg |
| CC(C)(C)[C@@H](O)/C(=C\c1ccc(Cl)cc1Cl)n1cncn1 | 474 mg/kg |
| CCOCOC(=O)c1ccccc1Nc1c(Cl)ccc(C)c1Cl | 307 mg/kg |
| CCC(C)c1ccccc1OC(N)=O (configuration not stated) | 410 mg/kg |
| O=C=NCCCCCCNC(=O)N(CCCCCCN=C=O)C(=O)NCCCCCCN=C=O | 19800 mg/kg |
| O=Cc1cccc(Br)c1 | 1130 mg/kg |
| Nc1ccc(S(=O)(=O)O)c(N)c1 | 3480 mg/kg |
| CC(C)(C(=O)O)S(C)(=O)=O | 5700 mg/kg |
| c1ccc2c(C(CCN3CCOCC3)CCN3CCOCC3)cccc2c1 | 708 mg/kg |
| CCC=C(C)C=O | 4290 mg/kg |
| COc1ccc([N+](=O)[O-])cc1CNCCO | 30 mg/kg |
| FC(F)=C(F)c1ccccc1 | 2500 mg/kg |
| COP(=S)(OC)SCCSC | 75 mg/kg |
| O=C1C=CC(=O)N1C(=O)NCNC(=O)N1C(=O)C=CC1=O | 1420 mg/kg |
| CCCCCC(=O)NO | 3200 mg/kg |
| C(=NCCCCCCN=Cc1ccco1)c1ccco1 | 490 mg/kg |
| O=C1c2ccccc2-c2c([N+](=O)[O-])cc3c4cc([N+](=O)[O-])c5c6c(ccc(c7ccc1c2c73)c64)C(=O)c1ccccc1-5 | 10000 mg/kg |
| Clc1cccc(-c2cc(Cl)cc(Cl)c2)c1 | 2300 mg/kg |
| Cc1ccc(Cc2ccc(C)cc2)cc1 | 3800 mg/kg and 1700 mg/kg |
| COc1c(O)c(Cl)c(Cl)c(Cl)c1Cl | 1690 mg/kg |
| CCCCOCCOCCCO | 5160 mg/kg |
| Cc1cc(=O)n(CSP(=S)(OC(C)C)OC(C)C)nc1Cl | 110 mg/kg |

| SMILES | LD50 |
| --- | --- |
| CCCCCCCCCCCCCCCC[N+](C)(C)C | 410 mg/kg |
| CC(CCc1ccccc1)NCC(O)c1ccc(O)c(C(N)=O)c1 (configuration not stated) | 2110 mg/kg |
| CCc1ccc(C(=O)C(C)CN2CCCCC2)cc1 (configuration not stated) | 1000 mg/kg |
| CCOc1ccc(C(=O)NCc2ccc(OCCNC)cc2)cc1OCC | 3000 mg/kg |
| O=C(O)/C=C\Cl | 320 mg/kg |
| CCO[Si](C)(C)CCl | 1550 mg/kg |
| CCC(=O)OCC=Cc1ccccc1 | 3400 mg/kg |
| CC(Oc1ccc(Oc2ccc(Cl)cc2)cc1)C(=O)O (configuration not stated) | 1200 mg/kg |
| CCOC(=O)C=C(C)C | 11600 mg/kg |
| CCOC(=O)CC(CC(=O)OCC)(OC(C)=O)C(=O)OCC | 7000 mg/kg |
| O=C1C=CC(=O)c2ccccc21 | 190 mg/kg |
| CC12CCC3(CCCC(C)(C)C3C1)OC2=O (configuration not stated) | 1600 mg/kg |
| CNC(=O)ON=C1CSC(C)CS1 (configuration not stated) | 5.1 mg/kg |
| CC(C/N=C/c1ccccc1O)/N=C/c1ccccc1O (configuration not stated) | 4560 mg/kg |
| CCCCNC1CCCCC1 | 330 mg/kg |
| O=C1OCC(CCl)O1 (configuration not stated) | 80 mg/kg |
| CCCCCCCCCCCC(=O)O | 12000 mg/kg |
| CC(C)COC(=S)S | 1290 mg/kg |
| N#CCC(=O)c1ccc(N)cc1 | 2260 mg/kg |
| CC(N)CN (configuration not stated) | 2230 mg/kg |
| Nc1cccc2c3c([nH]c12)CCCC3 | 1380 mg/kg |
| OC[C@H]1O[C@@H](O[C@@H]2[C@@H](CO)O[C@](O)(CO)[C@H]2O)[C@H](O)[C@@H](O)[C@H]1O | 18200 mg/kg |

| SMILES | LD50 |
| --- | --- |
| CCCC/C=C/C=O | 1300 mg/kg |
| CCCS(=O)(=O)/C=C/S(=O)(=O)CCC | 200 mg/kg |
| COc1ccc2cc(CCC(C)=O)ccc2c1 | 3880 mg/kg |
| O=C(Cc1ccccc1)NNCc1ccccc1 | 2500 mg/kg |
| C1OC1CSCC1CO1 (configuration not stated) | 32 mg/kg |
| NCCN(CCN)CCN | 246 mg/kg |
| Cc1ccc([N+](=O)[O-])cc1S(=O)(=O)Cl | 7470 mg/kg |
| CCCCCCCCOC(=O)C1=C(C)NC(C)=C(C(=O)NC2CC2)C1c1ccccc1[N+](=O)[O-] (configuration not stated) | 50 mg/kg |
| CN(C)CCNC(=O)C(C)(C)Oc1ccc(Cl)cc1 | 130 mg/kg |
| O=C(O)CCCN1C(=O)c2cccc3cccc(c23)C1=O | 4000 mg/kg |
| CC(=NO)C(C)(O)C#Cc1ccccc1 (configuration not stated) | 3120 mg/kg |
| Cc1onc2c(=O)n(-c3ccccc3)nc(-c3ccccc3)c12 | 1000 mg/kg |
| CCCCCCCNC(=O)Oc1ccc2c(c1)C1(C)CCN(C)C1N2C (configuration not stated) | 25.1 mg/kg |
| COc1ccc(N)cc1N | 460 mg/kg |
| C[C@H]1C(=O)O[C@@H]2CCN3CC=C(COC(=O)[C@](C)(O)[C@]1(C)O)[C@H]23 | 66 mg/kg |
| CC(C)OP(=S)(CCl)Sc1ccc(F)cc1 (configuration not stated) | 39 mg/kg |
| OCC(Br)C(Br)CO (configuration not stated) | 2460 mg/kg |
| CCCCNC1(P(=O)(OCCCC)OCCCC)CCCCC1 | 3000 mg/kg |
| CC(=O)NC(N)=S | 50 mg/kg |
| CC(C)COCCO | 400 mg/kg |
| CC(C)(C)c1cc(Cl)cc(Sc2cc(Cl)cc(C(C)(C)C)c2O)c1O | 6100 mg/kg |
| CCCCCCCCCCCCOC(CBr)c1ccc(C(C)C)cc1 (configuration not stated) | 250 mg/kg |

| SMILES | LD50 |
| --- | --- |
| Fc1c(Cl)c(Cl)c(Cl)c2[nH]c(C(F)(F)F)nc12 | 0.847 mg/kg |
| Cc1ccc(S(=O)(=O)Oc2cc(S(=O)(=O)O)cc3cc(S(=O)(=O)O)cc(N)c23)cc1 | 11500 mg/kg |
| CCC(c1ccccc1)c1c(O)c2ccccc2oc1=O (configuration not stated) | 200 mg/kg |
| O=C=Nc1ccc([N+](=O)[O-])cc1 | 1600 mg/kg |
| CNC(=O)C(Cl)C(C)=O (configuration not stated) | 700 mg/kg |
| C[N+]1(CCC(O)(c2ccccc2)C2CCCCC2)CCCC1 (configuration not stated) | 984 mg/kg and 985 mg/kg |
| N=C(N)NCCCCCCCCNCCCCCCCCNC(=N)N | 300 mg/kg |
| CS/C(C)=N/OC(=O)N(C)SN(C)C(=O)O/N=C(\C)SC | 66 mg/kg |
| CC(O)C(Cl)(Cl)Cl (configuration not stated) | 1000 mg/kg |
| C=C(C)CN(CC)c1c([N+](=O)[O-])cc(C(F)(F)F)cc1[N+](=O)[O-] | 10000 mg/kg |
| CC1CCCc2ccccc21 (configuration not stated) | 6700 mg/kg |
| CSC#N | 60 mg/kg |
| COc1ccccc1C=Nc1ccccc1C(=O)O | 1500 mg/kg |
| C[Si]1(C)N[Si](C)(C)N[Si](C)(C)N[Si](C)(C)N1 | 100 mg/kg |
| CCCCCCN | 670 mg/kg |
| CC1CNCC(C)O1 (configuration not stated) | 2830 mg/kg |
| COc1ccccc1-c1ccccc1 | 3600 mg/kg |
| CC1=NN(C(=N)N=C(N)N)C(C)(C)C1 | 4090 mg/kg |
| CC1=CC(=O)c2c(O)cccc2C1=O | 65 mg/kg |
